Article PMC6009888, “Design, synthesis, and pharmacological evaluation of 2-amino-5-nitrothiazole derived semicarbazones as dual inhibitors of monoamine oxidase and cholinesterase: effect of the size of aryl binding site” (Journal of Enzyme Inhibition and Medicinal Chemistry, 2017)
Values joined by “and” are separate entries in the source; they are usually repeats but may differ in a detail not shown here. Equal values may be shown once. Read-outs that look alike come from different tables or passages of the source.

Columns and labels:
MAO-A = biological target: T1, MAO-A (Rattus norvegicus, UniProt P21396); test: In vitro MAO-A inhibition assay (rat brain mitochondria, serotonin substrate); assay type: biochemical; conditions: rat brain mitochondria, serotonin substrate, mean ± SEM, triplicate
T1 construct: employing crude rat brain mitochondrial suspension; from tissue; host or cells: brain mitochondria of adult Wistar rats
T1 sequence (P21396 1-526): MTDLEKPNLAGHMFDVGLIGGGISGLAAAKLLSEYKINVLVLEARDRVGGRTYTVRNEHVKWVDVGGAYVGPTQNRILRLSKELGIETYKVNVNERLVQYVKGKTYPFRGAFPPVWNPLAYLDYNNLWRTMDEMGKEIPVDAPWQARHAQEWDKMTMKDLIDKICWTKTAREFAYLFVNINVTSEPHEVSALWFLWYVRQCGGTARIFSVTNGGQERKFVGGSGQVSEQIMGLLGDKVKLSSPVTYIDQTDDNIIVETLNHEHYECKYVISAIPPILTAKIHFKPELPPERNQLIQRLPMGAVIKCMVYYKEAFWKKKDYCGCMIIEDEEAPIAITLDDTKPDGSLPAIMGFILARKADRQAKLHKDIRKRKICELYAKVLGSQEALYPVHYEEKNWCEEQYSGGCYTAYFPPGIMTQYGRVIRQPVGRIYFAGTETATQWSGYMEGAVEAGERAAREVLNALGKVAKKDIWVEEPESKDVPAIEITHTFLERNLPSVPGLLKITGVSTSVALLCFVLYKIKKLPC
Description: (§1) Rat brain mitochondria were used as a source of MAO isoforms. All operations were carried out at 4 °C[50]. Male and female adult Wistar rats weighing 200–220 g were decapitated. All brains were rapidly removed and homogenised with a Potter–Elvehjem homogeniser in cold 0.32 M sucrose and 50 mM Tris-HCl, pH 8.2 (10:1, v/w). The homogenate was centrifuged twice at 1000 g for 5 min at 4 °C. The resulting supernatant was centrifuged at 20,000 g for 20 min. The mitochondrial pellet obtained was suspended in 100 mM sodium phosphate buffer, pH 7.4 (4:1, v/w), fractionated in plastic vials to 500 µl samples and stored at −80 °C. Before use, mitochondria were diluted with 100 mM sodium phosphate buffer to give a working solution of 0.80 mg of protein per millilitre.
(§2) The experiments were carried out under all the suitable laboratory conditions. […] An aliquot was made to contain mixture of 55 µl mitochondrial suspension (0.80 mg of protein/ml), 90 µl 50 mM Tris-HCl buffer, pH 8.2 and 30 µl solubilising solution (control or inhibitor solution at five different concentrations). The reaction was initiated by adding 25 µl of serotonin (4 mM, substrate for MAO-A) and 25 µl benzylamine (0.1 M, substrate for MAO-B) for the determination of MAO-A and MAO-B activity, respectively. The mixture was incubated at 37 °C for 30 min and the reaction was stopped by the addition of 50 µl of 1 N HCl. The absorbance associated with the production of 5-hydroxyindolacetic acid was measured at 280 nm for the estimation of MAO-A while for MAO-B estimation, the absorbance was measured at 250 nm due to the formation of benzaldehyde. All the assays were performed in triplicate. Control experiments were carried out without inhibitor and blanks were run without mitochondrial suspension.
(§3) Data are expressed as mean ± standard error mean (SEM) of experiments performed in triplicate.
(§4) 0, 15, 30 and 60 min at 37 °C in Tris-HCl buffer (50 mM, pH 8.2). […] The reactions were further incubated at 37 °C for a further 15 min and the residual enzyme activities were measured and the bar graphs were constructed. All measurements were carried out in triplicate and are expressed as mean ± SEM.

[1] = In vitro DPPH radical scavenging assay; conditions: test sample 100 µg/ml, 100 µM methanolic DPPH, 30 min, 517 nm
Description: Antioxidant activity of the synthesised compounds (10 mg/ml) was evaluated using the radical scavenging capability against the stable free radical, 2,2′-diphenyl-1-picryl hydrazyl (DPPH·). The DPPH· scavenging capability was determined using UV based spectrophotometric assay. About 200 µl of the test sample solution (100 µg/ml) was added to 4 ml of 100 µM methanolic DPPH. […] Ascorbic acid (100 µg/ml) was used as reference. The percentage inhibition of DPPH activity was estimated using the formula: Percent (%) inhibition of DPPH activity = Acontrol-Asample/Acontrol×100 where Acontrol is the absorbance of DPPH· in methanol without an antioxidant and Asample is the absorbance of DPPH· in the presence of an antioxidant.

MAO-B = biological target: T2, MAO-B (Rattus norvegicus, UniProt P19643); test: biochemical; conditions: for SI (selectivity index for MAO-B): ratio of experimental IC50(MAO-A)/IC50(MAO-B)
T2 construct: employing crude rat brain mitochondrial suspension; from tissue; host or cells: brain mitochondria of adult Wistar rats
T2 sequence (P19643 1-520): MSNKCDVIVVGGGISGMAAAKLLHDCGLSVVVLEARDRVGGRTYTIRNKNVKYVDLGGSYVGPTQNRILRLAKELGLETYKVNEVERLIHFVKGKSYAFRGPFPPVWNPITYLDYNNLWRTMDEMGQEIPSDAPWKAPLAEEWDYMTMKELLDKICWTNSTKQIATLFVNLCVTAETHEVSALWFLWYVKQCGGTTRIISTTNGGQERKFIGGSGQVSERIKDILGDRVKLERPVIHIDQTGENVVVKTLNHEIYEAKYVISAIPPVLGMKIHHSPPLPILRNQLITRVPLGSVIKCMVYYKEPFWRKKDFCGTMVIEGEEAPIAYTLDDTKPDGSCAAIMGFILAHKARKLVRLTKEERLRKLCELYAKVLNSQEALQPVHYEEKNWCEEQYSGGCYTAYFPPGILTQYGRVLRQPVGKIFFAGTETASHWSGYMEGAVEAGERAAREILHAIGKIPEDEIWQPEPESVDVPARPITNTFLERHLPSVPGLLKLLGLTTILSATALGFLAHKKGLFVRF
Description: as §1, §2, §3, §4

rat brain AChE = biological target: T3, rat brain AChE (Rattus norvegicus, UniProt P37136); test: biochemical; assay type: biochemical; conditions: for IC50: rat brain AChE, ACTI substrate, mean ± SEM, triplicate
T3 construct: the resulting clear supernatants obtained were used as enzyme sources; from tissue; host or cells: rat brain cortex homogenate, 10,000 g supernatant
T3 sequence (P37136 32-614): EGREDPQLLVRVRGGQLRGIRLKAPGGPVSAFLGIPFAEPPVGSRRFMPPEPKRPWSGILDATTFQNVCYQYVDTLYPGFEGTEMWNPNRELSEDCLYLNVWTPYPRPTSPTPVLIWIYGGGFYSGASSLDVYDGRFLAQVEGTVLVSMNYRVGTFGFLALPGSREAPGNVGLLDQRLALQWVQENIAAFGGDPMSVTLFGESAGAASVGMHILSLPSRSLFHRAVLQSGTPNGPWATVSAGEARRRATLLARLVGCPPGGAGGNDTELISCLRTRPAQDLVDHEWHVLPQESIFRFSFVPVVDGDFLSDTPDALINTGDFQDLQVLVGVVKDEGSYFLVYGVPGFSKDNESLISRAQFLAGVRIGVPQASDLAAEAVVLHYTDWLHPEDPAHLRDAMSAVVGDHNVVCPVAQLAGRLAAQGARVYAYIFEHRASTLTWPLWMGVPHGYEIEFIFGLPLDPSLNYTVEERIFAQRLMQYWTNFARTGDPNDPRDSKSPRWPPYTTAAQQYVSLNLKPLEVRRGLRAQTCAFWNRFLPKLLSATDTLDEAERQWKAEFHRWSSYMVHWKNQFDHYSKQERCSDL
Description: Rat brain was used as a source of AChE enzyme. Rats were separately decapitated, the brain cortices quickly removed, weighed and homogenised in cold 10 mM Tris-HCl buffer, pH 7.2, containing 160 mM sucrose. The homogenates were centrifuged at 10,000 g for 10 min at 4 °C, and the resulting clear supernatants obtained were used as enzyme sources that were divided into aliquots and stored at −20 °C.
About 30 µl of enzyme sample (AChE) was added to 60 µl of 20 mM sodium phosphate buffer (pH 7.4) and were incubated in the presence of 30 µl of 10 mM DTNB solution with different concentrations of the test compounds. The enzyme reaction was initiated by the addition of 30 µl of 0.8 mM ACTI. The mixtures were incubated for 15 min at 25 °C. […] Control experiments were carried out without inhibitor, and blanks were run without AChE enzyme. All the assays were performed in triplicate. IC50 values were determined using the GraphPad Prism 5.0 (San Diego, CA) and the results were expressed as mean ± SEM.
0, 15, 30 and 60 min at 25 °C in sodium phosphate buffer (20 mM, pH 7.4) and DTNB solution (10 mM). […] The reaction was further incubated at 25 °C for a further 15 min and the residual enzyme activities were measured and the bar graphs were constructed. All measurements were carried out in triplicate and are expressed as mean ± SEM.

mice = test: Neurotoxicity screening (rotarod test); assay type: in vivo; conditions: 30 mg/kg i.p.
Description: The neurotoxicity screening was undertaken according to the method followed by the National Institute of Health, using their reported procedures[55]^,[56]. Male albino mice (CF-1 strain or Swiss, 18–25 g) were used as experimental animals. The animals were housed in metabolic cages, and allowed free access to food and water. The test compounds were suspended in 0.5% methylcellulose/water mixture or in polyethylene glycol (PEG 200).
Minimal motor impairment was measured in mice by the rotarod test. The mice were trained to stay on an accelerating rotarod that rotates at six revolutions per minute. The rod diameter was 3.2 cm. Trained animals were given i.p. injection of the selected inhibitors at a dose of 30 mg/kg. Neurotoxicity was indicated by the inability of the animal to maintain equilibrium on the rod for at least 1 min in each of the three trials.

[2] = read-out: MAO-A In vitro IC50 (µM) ± SEM
[3] = read-out: AChE In vitro IC50 (µM) ± SEM

| SMILES | IC50 (MAO-A; [2]) | % inhibition of DPPH activity [1] [%] | IC50 (MAO-B) [µM] | SI (selectivity index for MAO-B) (MAO-B) | logP (physchem; octanol/water) | IC50 (rat brain AChE; [3]) [µM] | Neurotoxicity (animals that exhibit toxicity / animals tested) (mice; 0.5 h) | Neurotoxicity (animals that exhibit toxicity / animals tested) (mice; 1 h) | Neurotoxicity (animals that exhibit toxicity / animals tested) (mice; 2 h) | Neurotoxicity (animals that exhibit toxicity / animals tested) (mice; 4 h) | MAO-B: fold reduction in the activity (hydroxyl vs dichloro diaryl analogue 19) (MAO-B; diaryl analogues) [fold] | MAO-B: fold less active relative to compound 7 (MAO-B; ratio of IC50 values) [fold] | AChE: fold less active relative to compound 19 (rat brain AChE; diaryl analogues) [fold] | AChE: fold more active relative to compound 7 (rat brain AChE; ratio of IC50 values) [fold] | IC50 (MAO-A; MAO-A In vitro IC50 (µM) ± SEM) [µM] | logP (physchem) | IC50 (rat brain AChE; AChE In vitro IC50 (µM) ± SEM) [µM] | MAO-B: fold less active than compound 13 (MAO-B; isomeric dichloro derivatives) [fold] | AChE: fold less active than compound 14 (rat brain AChE; isomeric dichloro derivatives) [fold] |
| --- | --- | --- | --- | --- | --- | --- | --- | --- | --- | --- | --- | --- | --- | --- | --- | --- | --- | --- | --- |
| O=C(NN=Cc1ccc(Cl)cc1Cl)Nc1ncc([N+](=O)[O-])s1 [Compound 13, 1-(2,4-Dichlorobenzylidene)-4-(5-nitrothiazol-2-yl)semicarbazide] | 10470 ± 13.9 µM | 39.39 | 3.49 ± 0.098 | 3001.15 | 2.5 | 141 ± 3.11 | 0/4 | 0/4 | 0/4 | 0/4 |  |  |  |  |  |  |  |  |  |
| O=C(NN=C(c1ccccc1)c1ccc(O)cc1)Nc1ncc([N+](=O)[O-])s1 [Compound 18, 1-((4-Hydroxyphenyl)(phenyl)methylene)-4-(5-nitrothiazol-2-yl)semicarbazide] | > 100 µM and 34300 µM | 10.77 | 158 ± 3.71 | 217.26 | 2.9 | 2.66 ± 0.084 | 0/4 | 0/4 | 0/4 | 0/4 | ~107 | ~10.7 | ~1.83 | ~4.97 |  |  |  |  |  |
| O=C(NN=C1C(=O)Nc2ccccc21)Nc1ncc([N+](=O)[O-])s1 [Compound 20, 4-(5-Nitrothiazol-2-yl)-1-(2-oxoindolin-3-ylidene)semicarbazide] | 2250 ± 12.8 µM | 47.16 | 4.51 ± 0.086 | 499.22 | 1.1 | 54.8 ± 0.92 | 0/4 | 0/4 | 0/4 | 0/4 |  |  |  |  |  |  |  |  |  |
| CC(=NNC(=O)Nc1ncc([N+](=O)[O-])s1)c1ccc([N+](=O)[O-])cc1 [Compound 8, 1-(1-(4-Nitrophenyl)ethylidene)-4-(5-nitrothiazol-2-yl)semicarbazide] |  | 11.60 | 23.88 ± 0.022 | 114.86 |  |  |  |  |  |  |  |  |  |  | 2743 ± 3.65 | 1.4 | 45.5 ± 1.36 |  |  |
| O=C(NN=Cc1cccc(Cl)c1Cl)Nc1ncc([N+](=O)[O-])s1 [Compound 12, 1-(2,3-Dichlorobenzylidene)-4-(5-nitrothiazol-2-yl)semicarbazide] | 3369 ± 6.43 µM | 42.56 | 8.51 ± 0.132 | 395.79 | 2.6 | 101 ± 1.58 | 0/4 | 0/4 | 0/4 | 0/4 |  |  |  |  |  |  |  | ~2.4 | ~9.4 |
